The source of these data is PubChem BioAssay AID179 (DTP/NCI, 2004).

This assay relates to CEM cells HIV-1 protection, formazan growth assay. The assay is described as follows: NCI AIDS Antiviral Assay. Particulars: for IC50: measured here: growth of uninfected CEM cells. The method in brief: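 Protection of CEM cells against HIV-1 measured as cell growth via soluble formazan read-out, with five concentrations tested on both infected and uninfected cells; failure to protect may reflect toxicity.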

Active and inactive are the calls of the source.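 The calls were made as follows: active = compounds giving half or more protection of infected cells from virus-caused growth loss, again on retest; inactive = the rest.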 Where a SMILES comes first, the peptide text is derived from it.

`COC1/C=C/OC2(C)Oc3c(C)c(O)c4c(c3C2=O)C(=O)C=C(NC(=O)/C(C)=C\C=C\C(C)C(OC=O)C(C)C(O)C(C)C(OC(C)=O)C1C)C4=O` (stereo unspecified): the EC50 is greater than 200 µM and the IC50 is 7.41 µM. Take `CCC(C)C(NC(=O)C(CCCN=C(N)N)NC(=O)C(CC(N)=O)NC(=O)C(Cc1cnc[nH]1)NC(=O)C(N)CC(C)C)C(=O)NC(C(=O)NC(CC(C)C)C(=O)NC(C(=O)NC(Cc1cnc[nH]1)C(=O)O)C(C)O)C(C)CC` (stereo unspecified) (H-LHNRIILTH-OH; configuration not given here): the EC50 was greater than 44.7 µM and the IC50 is greater than 44.7 µM. Turning to `COC1(OC)C2(Cl)CC(OC(C)=O)C1(Cl)C(Cl)=C2Cl` (stereo unspecified), the EC50 was greater than 200 µM and the IC50 is greater than 100 µM. For the compound `COc1ccc(N2C(=O)C(=O)N(C)C2=O)c2ccccc12`, the result was inactive.

`Cc1ccc(S(=O)(=O)NNCNC(=O)c2ccccc2)cc1`: the result was inactive. `C1=C2CN3CCC45c6ccccc6N6CCC(OC1)C(C2CC34)C65` (stereo unspecified): the EC50 was greater than 776 µM and the IC50 was 302 µM. `CCOC(=O)c1ccc(N=C2S/C(=C\C(=S)Nc3ccccc3)N(c3ccccc3)C2=Nc2ccc(C(=O)OCC)cc2)cc1`: the EC50 is greater than 200 µM and the IC50 was greater than 200 µM. Consider `COC(=O)[C@@H](Cc1ccccc1)N1O[C@]12CCCC[C@@H]2NC(=O)OC(C)(C)C` (stereo partly specified), for which the EC50 is greater than 200 µM and the IC50 turned out to be 32.4 µM. The like results for `COc1cccc(C2c3cc4c(cc3OC(NNS(=O)(=O)c3ccc(C)cc3)C2C)OCO4)c1OC` (stereo unspecified) were, in that order, greater than 200 µM and 1.86 µM.

Take `CC(C)COC(=O)N1N=NC2C3CC(=O)C(O3)C21` (stereo unspecified): the EC50 is greater than 708 µM and the IC50 worked out at 123 µM. With `COC(=O)c1cc(C(=CCC23CC4CC(CC(C4)C2)C3)c2cc(Cl)c(OC)c(C(=O)OC)c2)cc(Cl)c1OC`, the EC50 is greater than 17.4 µM and the IC50 was greater than 17.4 µM. Consider `Cc1ccc(Nc2sc(C)cc2C#N)c([N+](=O)[O-])c1`, for which the EC50 is greater than 200 µM and the IC50 worked out at 178 µM.

`Cc1cc(NC(=O)c2ccc(N)cc2)ccc1N=Nc1ccc2c(O)c(N=Nc3ccc4cc(S(=O)(=O)O)ccc4c3)c(S(=O)(=O)O)cc2c1`: the EC50 was 25.1 µM and the IC50 is greater than 100 µM.

For `[CH3][Hg]/[N]=C(/N)NC#N`, the outcome was inactive. The same measure, in the same setting: the same measure for `OC/C=C/c1ccc(Cl)cc1`: “inactive”. For `CCOC(=O)c1c(N)nnc(-c2ccccc2)c1-c1ccccc1`, the EC50 was greater than 200 µM and the IC50 was 129 µM. The like results for `Cc1cn(C2OCC(CO)C2O)c(=O)[nH]c1=O` (stereo unspecified) were, in that order, greater than 200 µM and greater than 200 µM. The like results for `CN(C)CCNc1ccc2c(=O)n(CCN(C)C)c(=O)n3c4ccc(N)cc4c(=O)c1c23` were, in that order, greater than 200 µM and 0.0631 µM. The matching figures for `CSc1ncnc2c1ncn2C1CC(Oc2ccc(C)cc2)C(COc2ccc(C)cc2)O1` (stereo unspecified): greater than 200 µM and 30.9 µM. Take `S=C(N1CCN(c2ccccc2)CC1)N1CCN(c2ccccc2)CC1`: the EC50 was greater than 200 µM and the IC50 was greater than 200 µM.

In the case of `Cc1ccnc2c1C(=O)C(=O)C=C2N1CCCC1`, the outcome was inactive. As for `OC(c1cccnc1)C(F)(F)c1nc2ccccc2o1` (stereo unspecified), the EC50 was greater than 200 µM and the concentration for half-maximal inhibition (IC50) is greater than 200 µM.

Regarding `CN1C(=O)CNC(=O)c2ncn(C3OC(CO)C(O)C3O)c21` (stereo unspecified), the EC50 is greater than 229 µM and the IC50 is greater than 229 µM. `CO/C(=N\N=C\c1ccccc1F)c1ccncc1`: the EC50 was greater than 141 µM and the IC50 was greater than 141 µM. In the case of `CC1(C)CCc2cc3c(-c4ccccc4)cc(=O)oc3cc2O1`, the result was inactive. Take `Cc1ccc(Nc2nc(=O)[nH]c(=O)[nH]2)cc1N=[N+]=[N-]`: the EC50 is greater than 200 µM and the IC50 is greater than 200 µM.

As to `CC1=NNC(N)=N/C1=C\C(Sc1ccc(Cl)cc1)c1ccc(Cl)cc1Cl` (stereo unspecified), the EC50 was greater than 112 µM and the IC50 was found to be 18.6 µM. The like results for `CCOP(=O)(OCC)/C(C#N)=C/c1ccc(C#N)cc1` were, in that order, greater than 123 µM and greater than 123 µM.

For the compound `CCN(CC)C(=S)SS(=O)(=O)c1ccc([N+](=O)[O-])cc1`, the EC50 is greater than 200 µM and the IC50 was 19.1 µM.

Turning to `Cc1c(N=Nc2ccccc2)c(C)n(C2OC(CO)C(O)C(O)C2O)c(=S)c1C#N` (stereo unspecified), the EC50 was greater than 200 µM and the IC50 was found to be 22.9 µM. The matching figures for `CN(C)CCNCc1ccc(-c2cccc(-c3ccc(CNCCN(C)C)cc3)n2)cc1`: greater than 204 µM and 2.45 µM.

In the case of `CCOC(=O)C1C2CCC(C2)C1(CCl)C(=O)OCC` (stereo unspecified), the EC50 was greater than 251 µM and the IC50 was greater than 251 µM. Regarding `CCCCCCC(=O)N1SC(NC(=O)OC)=Nc2ccccc21`, the EC50 is greater than 77.6 µM and the IC50 was 10.2 µM. The matching figures for `CC(=O)OCC1OC(N2C(=O)NC(=O)C3C=C4CCCCC4=CC32)C(OC(C)=O)C1OC(C)=O` (stereo unspecified): greater than 200 µM and greater than 200 µM.

Consider `CN(C)CC/C(=N\Nc1c(F)c(F)c(F)c(F)c1F)c1ccccc1`, for which the result was inactive. Consider `COc1cc2ccc1OCc1cccc(n1)COc1ccc(cc1OC)C=Nc1ccc(cc1)N=C2`, for which the EC50 was greater than 200 µM and the IC50 is greater than 200 µM.

With `CCn1c(O)c(C=Nc2ccccc2)s/c1=N/Nc1nc(C)cs1`, the EC50 was greater than 200 µM and the IC50 amounted to 174 µM.

`Cn1c(=O)c2nc(NCC3CCCCC3)sc2n(C)c1=O`: the EC50 was greater than 107 µM and the IC50 was determined as 102 µM.

Consider `CC1=N/C(=C\c2cccc(F)c2)C(=O)O1`, for which the EC50 was greater than 126 µM and the IC50 was greater than 126 µM. In the case of `C#C[C@]1(O)CCC2C3CCc4cc(Oc5nc(F)nc(-c6c7cc8ccccc8cc7c7n6CCS7)n5)ccc4C3CCC21C` (stereo partly specified), the EC50 is greater than 200 µM and the IC50 was 25.1 µM. For `O=C(C=Nc1ccccc1C(=O)[O-])c1cccs1.O=C(C=Nc1ccccc1C(=O)[O-])c1cccs1.[Ni+2]`, the result was inactive. Regarding `C[C@]1(O)CC(=O)c2c(c(-c3ccc4cc5c(c(O)c4c3O)C(=O)C[C@@](C)(O)C5)c3cccc(O)c3c2O)C1`, the EC50 was greater than 200 µM and the concentration for half-maximal inhibition (IC50) worked out at 1.32 µM. Regarding `NC1=NC2(CS1)CSC(N)=N2`, the EC50 is greater than 263 µM and the IC50 was greater than 263 µM.

For the compound `COc1ccc(/C=C2\CCc3cc(OC)c(OC)cc3C2=O)cc1`, the result was inactive. Turning to `COC(=O)c1ccccc1NC(=O)C(=O)Cc1nc2c3c(ccc2[nH]c1=O)C(=O)c1ccccc1C3=O`, the EC50 is greater than 20.4 µM and the IC50 is greater than 20.4 µM. For the compound `CC(=O)Nc1ccc(S(=O)(=O)NNC(=O)NNS(=O)(=O)c2ccc(NC(C)=O)cc2)cc1`, the EC50 was greater than 7.41 µM and the IC50 was greater than 7.41 µM. On to `CC1OC(OP(=O)(OCc2ccccc2)OCc2ccccc2)C(OC(=O)c2ccccc2)C(OC(=O)c2ccccc2)C1I` (stereo unspecified), for which the EC50 is greater than 25.1 µM and the IC50 was greater than 25.1 µM. Take `Cc1nc(Nc2ccccc2Cl)sc1C(=O)CC(=O)C(=O)Nc1c(Cl)cccc1Cl`: the EC50 is greater than 200 µM and the IC50 is 57.5 µM. Take `CCOC(=O)Oc1c(Cl)cc(C(=CCC[C@H]2CC[C@@]3(C)[C@@H](CC[C@@H]4[C@@H]3CC[C@]3(C)[C@@H](C(C)CCCC(C)C)CC[C@@H]43)C2)c2cc(Cl)c(OC(=O)OCC)c(C(=O)OCC)c2)cc1C(=O)OCC` (stereo partly specified): the result was inactive. As for `CN(C)NC(=O)NC12CC3CC(CC(C3)C1)C2`, the outcome was inactive.

Take `CC(=O)NC1=NC(=O)/C(=C/c2ccc(Cl)cc2Cl)N1C`: the result was inactive. On to `Cc1cccc(N2C(=O)C(=O)C(c3nc4ccccc4s3)/C(=N/NC(=S)NN)C2=O)c1C` (stereo unspecified), for which the EC50 is greater than 269 µM and the IC50 was greater than 269 µM. For the compound `Cc1ccc(-n2c(=S)n(-c3ccccc3C)c3nc4ccccc4nc2/c3=N\Nc2ccccc2)cc1`, the EC50 is greater than 200 µM and the concentration for half-maximal inhibition (IC50) stood at 123 µM. `CCOC(=O)c1cc(OC(C)=O)c2ccccc2c1`: the EC50 is greater than 100 µM and the IC50 was determined as 95.5 µM. The like results for `CS(=O)(=O)OCCN1CCN(C(=O)c2cccc3c(Nc4ccc(S(=O)(=O)N=C(N)N)cc4)c4ccccc4nc23)CC1` were, in that order, greater than 35.5 µM and greater than 35.5 µM. The matching figures for `Cc1ccc(/C=N/n2c(=O)[nH]c3ccccc3c2=O)cc1`: greater than 200 µM and greater than 200 µM. For the compound `O=C(O)CN(c1ccccc1)S(=O)(=O)c1ccc(NC(=O)c2ccccc2)cc1`, the outcome was inactive. With `CCOC(=O)Cc1csc2nc(-c3ccccc3)nn12`, the EC50 was greater than 200 µM and the IC50 is 132 µM.

For the compound `CCOC(=O)C1CCn2c(nc3c(=O)n(C)c(=O)n(C)c32)S1` (stereo unspecified), the outcome was inactive. As to `COc1ccc(N2C(=O)C(C#N)=C(SC)C(C#N)C2=O)cc1` (stereo unspecified), the EC50 is greater than 200 µM and the IC50 came out at 174 µM. The matching figures for `c1ccc([P+](Cc2ccc(C[P+](c3ccccc3)(c3ccccc3)c3ccccc3)s2)(c2ccccc2)c2ccccc2)cc1`: 16.2 µM and 34.7 µM.

Regarding `Cc1cccc(C)c1NC(=O)/C(Cl)=C(/Cl)C(=O)O`, the result was inactive. For the compound `O=C1NC(=O)/C(=C/c2ccc(S(=O)(=O)N/N=C/c3ccccc3)cc2)N1`, the EC50 was greater than 200 µM and the IC50 is greater than 200 µM. On to `O=C1c2c(O)ccc(O)c2C(=O)c2c(NCCCCO)ccc(NCCCCO)c21`, for which the EC50 is 15.8 µM and the IC50 came to 17.4 µM.

`O=C(CSc1nc2ccccc2c(=O)n1-c1ccccc1)N=Nc1c(O)[nH]c2ccc(Br)cc12`: the 50% effective concentration (EC50) was 61.7 µM and the IC50 was 85.1 µM.

Take `Cc1cn(C2CC(n3cncn3)C(C(C)O)O2)c(=O)[nH]c1=O` (stereo unspecified): the EC50 was greater than 813 µM and the IC50 was greater than 813 µM.

Take `C[C@]12CC[C@H]3[C@@H](CCC4=CC(=O)[C@H](Br)C[C@@]43C)[C@@H]1CC[C@@H]2C(=O)CBr`: the EC50 was greater than 2 µM and the IC50 turned out to be 0.316 µM. With `CCOC(=S)SSSC(=S)OCC`, the EC50 is greater than 110 µM and the IC50 was determined as 34.7 µM.
